Results published in patent US11260116B2, “Vaccine compositions comprising an amphipathic compound, a neoantigen and a hydrophobic carrier, and methods of use thereof” (IMMUNOVACCINE TECHNOLOGIES INC., priority 2016, dated 2022).
Like-named read-outs stand apart in the source and are kept apart here.

Legend:
[1] = cited from earlier work
[2] = tested on: Mut30 neoantigen; assay: IFN-gamma ELISPOT of splenocytes from vaccinated mice; format: in vivo; conditions: Example 3, FIG. 2; C57BL/6 VAF/Elite Crl mice; DNA- or RNA-based poly I:C; single immunization; eight days after vaccination
Protocol: Pathogen free, C57BL/6 VAF/Elite® Crl mice, 6-8 weeks of age, were purchased from Charles River Laboratories (St. Constant, PQ) and housed according to institutional guidelines with water and food ad libitum under filter controlled air circulation.
Eight days after vaccination, mice were terminated and spleens collected. […] After 18 hours of culture, plates were developed and the number of spot forming units (SFU) counted using Immunospot Reader (C.T.L.). […] Statistical analysis was performed by 2-way ANOVA with Bonferroni post test comparing group responses to Mut30 peptide: *p<0.05, ***p<0.001.
Oil-based depot vaccine formulations were prepared with Mut30 antigen at a higher (100 micrograms) and lower (50 micrograms) dose.
To prepare the oil-based formulations, the Mut30 peptide (low or high dose amount), polyI:C adjuvant (DNA or RNA) and T-helper epitope (A16L peptide) were first reconstituted in an acetate buffer (0.1M, pH 9.5) with DOPC and cholesterol (Lipoid, Germany). The vaccine components were then lyophilized to form a dry cake. Just prior to injection, the dry cake was reconstituted in ISA51 VG oil (SEPPIC, France).
Mice in group 1 (n=6) were vaccinated with 100 microliters of an oil-based depot vaccine containing 100 micrograms of Mut30 neoantigen, 50 micrograms of A16L peptide, 40 micrograms of DNA-based poly I:C, 12 milligrams of DOPC and 1.2 milligrams of cholesterol. […]

[3] = tested on: mutated peptide; conditions: aqueous formulation, mice, cited from earlier work

Compound: O=P1(N(CCCl)CCCl)NCCCO1 (stereo not shown) [Cyclophosphamide, N,N-bis(2-chloroethyl)-1,3,2-oxazaphosphinan-2-amine 2-oxide]
- bioavailability by route of administration ([1]; intravenous infusion vs parenteral and oral): little difference in bioavailability
- Total systemic clearance of CPA and its metabolites ([1]; patients): 5 to 9 h
- elimination half-life on repeated administration ([1]; repeated administration): shorten elimination half-life
- peak plasma levels of the parent ([1]; vary between patients): 3 to 11 h

Compound: Mut30: Kif18b neoantigen (K739N) from B16F10 melanoma, PSKPSFQEFVDWENVSPELNSTDQPFL (SEQ ID NO: 2), from Castle 2012 (Mut30 Neoantigen)
- IFN-gamma ELISPOT immune response to Mut30, high (100 micrograms) vs low (50 micrograms) dose [2]: No statistically significant difference
- immune reaction to Mut30 reported by Castle 2012 [3]: strong immune reaction preferentially against the mutated peptide
- immune reaction to Mut30 reported by Castle 2012 ([3]; listed as Mut30 neoantigen): strong mutation-specific immune responses
